Experimental data taken from PMC8308524, “Interaction between DNA, Albumin and Apo-Transferrin and Iridium(III) Complexes with Phosphines Derived from Fluoroquinolones as a Potent Anticancer Drug” (Pharmaceuticals, 2021).

How the values were obtained:
[1] = molecular target: T1, human serum albumin (HSA) (Homo sapiens, UniProt P02768); test: Fluorescence quenching of human serum albumin; format: binding; conditions: 50 mM phosphate buffer pH 7.4, excitation 295 nm, Stern–Volmer
T1 construct: purchased Sigma–Aldrich (Hamburg, Germany)
T1 sequence (P02768 25-609): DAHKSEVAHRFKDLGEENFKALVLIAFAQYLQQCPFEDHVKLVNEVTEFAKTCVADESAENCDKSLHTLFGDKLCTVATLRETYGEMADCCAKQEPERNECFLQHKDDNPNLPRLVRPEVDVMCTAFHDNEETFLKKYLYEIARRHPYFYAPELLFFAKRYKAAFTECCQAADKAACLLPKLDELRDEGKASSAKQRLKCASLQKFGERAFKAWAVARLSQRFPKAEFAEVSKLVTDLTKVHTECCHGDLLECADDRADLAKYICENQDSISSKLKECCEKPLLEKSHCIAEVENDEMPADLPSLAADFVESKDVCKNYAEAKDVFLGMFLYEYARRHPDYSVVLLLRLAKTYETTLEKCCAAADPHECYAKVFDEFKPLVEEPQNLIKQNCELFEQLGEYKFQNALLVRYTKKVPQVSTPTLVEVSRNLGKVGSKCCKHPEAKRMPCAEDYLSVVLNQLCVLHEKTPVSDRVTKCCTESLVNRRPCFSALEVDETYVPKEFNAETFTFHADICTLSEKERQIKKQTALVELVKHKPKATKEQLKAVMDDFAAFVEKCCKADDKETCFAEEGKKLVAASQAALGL
From the text: Interest in studying the interaction of metal ions and their compounds with blood plasma proteins, especially with serum albumin (HSA), the most abundant protein in plasma involved in the transport of drugs through the bloodstream, is increasing. This molecule has two main binding sites: site I is located in subdomain IIA and site II is located in subdomain IIIA. […] Changes in the appearance of the Trp-214 residue emission band in HSA, in the presence of the tested compounds, may indicate changes in the protein’s conformation, the association of its subunits or denaturation, or the binding of the compound to protein [53, 56].
(§1) In order to confirm the quenching mechanism, the fluorescence quenching was analyzed according to Stern–Volmer in Equation (2):(2) I0/I=1+KsvC where I0 and I are the fluorescence intensities in the absence and presence of the quencher, respectively, KSV is the Stern–Volmer quenching constant, and [C] is the concentration of the quencher, respectively.
Human serum albumin (HSA) was dissolved in 50 mM phosphate buffer saline (PBS) (pH = 7.4), C (HSA) ≈ 5 × 10^− 5 M. The solution of the HSA was titrated at different molar ratios (0.5, 1, 2, 3, 4, 5, 6, 7, 8, 9 and 10) by IrPCp, IrPNr, IrPSf, IrPLm and phosphine ligands (dissolved in DMSO) and incubated for 1 h with any portion from each of the investigated compounds. The final volume of DMSO was 2% in each sample. Afterward, substances were incubated with HSA solution for 1h at room temperature. The excitation wavelength was equal to 295 nm.

pBR322 plasmid DNA = test: DNA strand break analysis by agarose gel electrophoresis; format: biochemical; conditions: pBR322, 10 to 500 μM, 1 h, 4 h, 24 h
From the text: Since intercalation usually results in relatively large changes in the double helix structure, we assumed that all iridium(III) complexes cause severe DNA cleavage. The binding ability of iridium(III) complexes with another DNA model—pBR322 plasmid DNA, was studied by gel electrophoresis as a target. The degree of plasmid degradation, which is naturally present in a superhelical form (form I), to determine the ability of the compounds to induce single- and/or double-strand damage of the DNA was checked. This process can lead to the formation of the relaxed/nicked (form II) and linear (form III) forms. The degree of DNA degradation was determined in a wide range of the tested compounds’ concentrations (from 10 to 500 μM) at three different incubation times: 1 h, 4 h, and 24 h (Figure 4E1–E3).
It was proven by cyclic voltamperometry, and fluorescence spectroscopy that the studied herein Ir(III) compounds can generate high levels of ROS, therefore the effect of additional H2O2 on the overall ROS production and the associated DNA damages caused by this radical pathway. Furthermore, to confirm the generation of particular types of ROS involved in plasmid degradation, the experiment using DMSO (effective scavenger of ^•OH), SOD (effective scavenger of O2^•−), [50] and NaN3 (effective scavenger of ^1O2) was performed. In order to exclude the effect of the hydrogen peroxide influence on plasmid DNA degradation, we performed an additional gel electrophoresis for H2O2 in different concentrations (Supplementary Materials, Figure S8).
The ability of IrPCp, IrPNr, IrPSf, IrPLm, and phosphine ligands to induce single- or double-strand breaks in plasmid DNA was tested with the pBR322 plasmid (C = 0.5 mg/mL). All compounds were dissolved in DMF; the concentration was kept constant (10% by volume) in the final solution with/without hydrogen peroxide (H2O2, C = 50 μM), superoxide dismutase (SOD, C = 0.62 μM), dimethyl sulfoxide (DMSO, C = 1.4 mM), or sodium azide (NaN3, C = 40 mM). The reaction was also monitored after the addition of various groove binders: methyl green (MG, C = 10 mg/mL), and 4′,6-diamidino-2-phenylindole (DAPI, C = 5 mg/mL). After incubation for 1 h at 37°C, reaction mixtures (20 μL) were mixed with 3 μL of loading buffer (bromophenol blue in 30% glycerol) and loaded on 1% agarose gels, containing EB, in TBE buffer (90 Mm Tris–borate, […], pH = 8.0). Gel electrophoresis was performed at a constant voltage of 100V (4 Vcm-1) for 60 min. The gel was photographed and processed with a Digital Imaging System (Syngen Biotech, Wroclaw, Poland).

CT DNA = test: Competitive fluorescence quenching of CT DNA-DAPI (minor groove binding); parameters: species or system calf; unit not given here; conditions: extended Stern–Volmer plot
From the text: It is well known that the cytotoxic activity of various drugs (e.g., fluoroquinolones) depends on interaction with DNA [1]. […] Several well-known DNA binding dyes with well-established binding modes were used: ethidium bromide (EB; intercalation), 4′,6-diamidino-2-phenylindole (DAPI; binding to a minor groove), and methyl green (MG; binding to a major groove). The compounds that can bind to DNA more strongly than the above-mentioned binding dyes (EB, DAPI, or MG) reduce the DNA-binding dye emission due to the replacement of dye. The emission spectra of the CT DNA-binding dye complex were measured at different concentrations of the investigated compounds, (Figure 2; Supplementary Materials, Figures S1–S4).
Furthermore, we conducted a similar competitive experiment using DAPI Figure 3, and Figures S2 and S3 in Supplementary Materials. […] The displacement of bound DAPI from its binding site on CT DNA is much stronger than when EB is used. In order to confirm the quenching mechanism, the fluorescence quenching was analyzed according to Stern–Volmer equations (Figure 3A) and KDSV (dynamic quenching constant) values, which are presented in Figure 3B. Based on Stern–Volmer plots (Figure 3A), the strength of CT DNA-DAPI fluorescence quenching formed the following order: IrPSf > IrPCp > IrPNr > IrPLm.
The stock solution was prepared by dissolving of the calf thymus (CT DNA) in 50 mM phosphate buffer saline (PBS) (pH = 7.4). The CT DNA concentration (C = 5 × 10^−5 M) was determined by a UV spectrophotometer using the molar absorption coefficient […] at 258 nm. The stock solution was stored at 4 °C and used for > 6 days. The luminescent complexes of CT DNA with EB (ethidium bromide), DAPI (4′,6-diamidyno−2-fenyloindol), and MG (methyl green) were prepared by mixing the substrates in the equimolar ratio (CCT DNA-fluorescent dye = 5 × 10^−5 M; 50 mM of the phosphate buffer at pH = 7.4). The solution of the CT DNA fluorescent dye system was titrated in different molar ratios (0.5, 1, 2, 3, 4, 5, 6, 7, 8, 9, and 10) with the tested substances (dissolved in DMSO) and incubated for 1 h for each portion of the investigated compounds. The final concentration of DMSO was 2% in each sample. Photoluminescence measurements were recorded at 298 K using a Cary Eclipse Fluorescence Spectrophotometer. The excitation wavelength was 510 nm for the CT DNA-EB complex, 358 nm for the CT DNA-DAPI complex, and 633 nm for the CT DNA-MG complex. The Inner Filter Effect was considered and the corrected intensity of the emission band was calculated using Equation (1), where: Abs—absorbance at analyzed emission wavelength; If—uncorrected emission intensity. (1) Icor=If 2.303 Abs/ 1−10^Abs
as §1
In same case, it was clearly observed that both static and dynamic quenching occur simultaneously where a nonlinear curve is observed. In such cases, extended Stern–Volmer plots can be used to describe the new situation with the following Equation (3). (3) 1−(I/I0)/C=KDSV(I/I0) +V where I0 and I are the fluorescence intensities in the absence and presence of the quencher, respectively; KDSV is the dynamic quenching constant; [C] is the concentration of the quencher, and V is the volume of the sphere of action. We drew the plots of ([1 − (I/I0)]/[C]) versus I/I0. KDSV is the slope of the plot and the static quenching constant V is calculated from the intercept of the plot.

apo-transferrin (apo-Tf) = molecular target: T2, apo-transferrin (apo-Tf) (Homo sapiens, UniProt P02787); test: Fluorescence quenching of apo-transferrin; format: binding; conditions: apo-Tf 3.6 × 10^−6 M, 50 mM phosphate buffer pH 7.4, excitation 295 nm, Stern–Volmer
T2 construct: purchased Sigma–Aldrich (Hamburg, Germany)
T2 sequence (P02787 20-698): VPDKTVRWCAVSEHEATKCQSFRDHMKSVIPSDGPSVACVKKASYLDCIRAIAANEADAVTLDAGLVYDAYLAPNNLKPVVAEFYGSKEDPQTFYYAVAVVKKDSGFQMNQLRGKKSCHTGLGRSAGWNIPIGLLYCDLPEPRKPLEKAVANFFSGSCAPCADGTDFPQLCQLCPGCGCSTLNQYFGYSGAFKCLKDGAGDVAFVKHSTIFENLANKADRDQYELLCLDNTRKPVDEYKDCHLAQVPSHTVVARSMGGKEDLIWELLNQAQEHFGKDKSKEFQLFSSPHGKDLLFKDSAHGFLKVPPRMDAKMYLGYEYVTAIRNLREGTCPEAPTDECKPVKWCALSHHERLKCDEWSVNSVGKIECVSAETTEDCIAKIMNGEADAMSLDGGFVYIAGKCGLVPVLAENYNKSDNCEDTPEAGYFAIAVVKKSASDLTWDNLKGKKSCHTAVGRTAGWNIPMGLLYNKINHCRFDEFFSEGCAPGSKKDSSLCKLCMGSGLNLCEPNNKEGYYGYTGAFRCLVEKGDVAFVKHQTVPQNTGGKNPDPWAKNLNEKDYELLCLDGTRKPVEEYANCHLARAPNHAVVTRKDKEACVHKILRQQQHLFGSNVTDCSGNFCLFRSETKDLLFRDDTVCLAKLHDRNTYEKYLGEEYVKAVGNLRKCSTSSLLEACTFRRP
Description: A solution of apo-Tf was titrated with increasing concentrations of all the tested compounds, and the fluorescence intensity of apo-Tf was monitored spectrophotometrically (Figure 9A; Supplementary Materials, Figures S6 and S7). At the same time, Ksv values were determined from Stern–Volmer plots (Figure 9B, Table 4).
as §1
Apo-transferrin (apo-Tf) solution was prepared by dissolving the solid protein in 50 mM of phosphate-buffered saline (PBS) (pH = 7.4), C (apo-Tf) ≈ 3,6 × 10^− 6 M. The solution of the Tf was titrated in different molar ratios (0.5, 1, 2, 3, 4, 5, 6, 7, 8, 9, and 10) by IrPCp, IrPNr, IrPSf, IrPLm with corresponding phosphines (dissolved in DMSO) and incubated for 1h with any portion from each of the investigated compounds. The final volume of DMSO was 2% in each sample. The excitation wavelength was equal to 295 nm. The spectra of circular dichroism were recorded using a spectropolarimeter JASCO J-715 (CD and MCD).

SMILES	Ksv (HSA fluorescence quenching) [1]	double-strand plasmid damage (formation of linear form III) (pBR322 plasmid DNA)	KDSV (dynamic quenching constant) (CT DNA)	V (static quenching constant, volume of the sphere of action) (CT DNA)	Ksv (apo-Tf fluorescence quenching) (apo-transferrin (apo-Tf))
CCn1cc(C(=O)O)c(=O)c2cc(F)c(N3CCN(C[P+](c4ccccc4)(c4ccccc4)[Ir]([Cl])[Cl])C(C)C3)c(F)c21.Cc1c(C)c(C)[c-](C)c1C (racemic) [IrPLm, Ir(η^5-Cp*)Cl2PLm]	5.06e+06 M⁻¹	not presumably capable of double-strand plasmid damage	2.19×10^3	1.45×10^3	19900 M⁻¹
Cc1c(C)c(C)[c-](C)c1C.O=C(O)c1cn(C2CC2)c2cc(N3CCN(C[P+](c4ccccc4)(c4ccccc4)[Ir]([Cl])[Cl])CC3)c(F)cc2c1=O [IrPCp, Ir(η^5-Cp*)Cl2PCp]	2.08e+06 M⁻¹	not presumably capable of double-strand plasmid damage	3.21×10^3	2.21×10^3	21800 M⁻¹
CCn1cc(C(=O)O)c(=O)c2cc(F)c(N3CCN(C[P+](c4ccccc4)(c4ccccc4)[Ir]([Cl])[Cl])CC3)cc21.Cc1c(C)c(C)[c-](C)c1C [IrPNr, Ir(η^5-Cp*)Cl2PNr]	698000 M⁻¹	not presumably capable of double-strand plasmid damage	1.72×10^3	1.13×10^3	20200 M⁻¹
CC1CN(c2c(F)c(N)c3c(=O)c(C(=O)O)cn(C4CC4)c3c2F)CC(C)N1C[P+](c1ccccc1)(c1ccccc1)[Ir]([Cl])[Cl].Cc1c(C)c(C)[c-](C)c1C (stereo not drawn) [IrPSf, Ir(η^5-Cp*)Cl2PSf]	5.67e+06 M⁻¹	not presumably capable of double-strand plasmid damage	3.62×10^3	2.42×10^3	13200 M⁻¹
CCn1cc(C(=O)O)c(=O)c2cc(F)c(N3CCN(CP(c4ccccc4)c4ccccc4)C(C)C3)c(F)c21 (stereo not drawn) [PLm]	5.3 M⁻¹				152 M⁻¹
CCn1cc(C(=O)O)c(=O)c2cc(F)c(N3CCN(CP(c4ccccc4)c4ccccc4)CC3)cc21 [PNr]					45.6 M⁻¹
CC1CN(c2c(F)c(N)c3c(=O)c(C(=O)O)cn(C4CC4)c3c2F)CC(C)N1CP(c1ccccc1)c1ccccc1 (stereo not drawn) [PSf]					11000 M⁻¹
